# Results taken from ChEMBL document CHEMBL1201862, “PubChem BioAssay data set” (2004).
# Active and inactive are the calls of the source.
# What was measured:
# J774.A1 = test: Confirmation of image-based Screening Assay for Inhibitors of Phagocytosis. [Related pubchem assays (depositor defined):AID1029, AID1643]; type: functional, cell-based; conditions: Mus musculus
# [1] = cytotoxicity in HEK-293T cells, dose response, cytotoxicity control for TCR NF-kB inhibitor project, luminescence, T-cell screen hits (AID 489026); type: functional, cell-based;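 further: cells exposed to compound about 14 hours before the viability readout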
# [2] = microbe, parasite or virus in culture; type: functional; conditions: Mycobacterium tuberculosis
# INS1 = test: beta cell apoptosis inhibitors, cytokine rescue, dose response, luminescence, retest (AID 449756); type: functional, cell-based; conditions: Rattus norvegicus, INS1;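 further: cell death triggered by IL-1 beta plus TNF-alpha plus IFN-gamma mixture; protective hits raise ATP signal compared with cytokine alone wells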
# BJ [3] = test: cells; type: functional, cell-based; conditions: Homo sapiens
# [4] = inhibitors of firefly luciferase expression or activity, dose response, H4 neuroglioma cells, luminescence (AID 1990); type: functional, cell-based
# BJ [5] = test: cytotoxicity toward BJ-TERT fibroblasts, dose response, cell-based, RAS-independent, luminescence (AID 1933); type: functional; conditions: Homo sapiens
# [6] = cytotoxicity toward DRD oncogenic fibroblasts, dose response, cell-based, non-viral oncogenic, luminescence (AID 1934); type: functional; conditions: Homo sapiens
# [7] = target: NACHT, LRR and PYD domains-containing protein 3 (Homo sapiens, UniProt Q96P20); test: NALP3 inhibitors in yeast, dose response, luminescent (AID 488799); type: functional
# [8] = Luminescence Cell-Based Dose Response HTS to Identify Inhibitors of 5'UTR Stem-Loop Driven Prion Protein mRNA Translation in H4 Neuroglioblastoma Cells. [Related pubchem assays: 1827 (Project Summary), 1813 (Primary HTS)]; type: functional
# [9] = C. albicans growth with fluconazole, confirmation, fluorescence, retest (AID 2467); type: functional, cell-based
# [10] = NIH-3T3 fibroblast cytotoxicity, dose response, cytotoxicity control, cell-based, fluorescence, Alamar Blue, secondary assay (AID 2327); type: functional;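 further: NIH-3T3 mouse fibroblasts cultured with fluconazole at 8 µg/mL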
# [11] = inhibitors of SNCA 5'UTR-driven reporter translation, confirmation, H4 neuroglioma cells, luminescence (AID 1988); type: functional, cell-based
# [12] = target: Mitochondrial peptide methionine sulfoxide reductase (Bos taurus, UniProt P54149); test: Absorbance-based biochemical high throughput dose response assay for activators of Methionine sulfoxide reductase A (MsrA).; type: functional
# BJ [13] = test: cytotoxicity toward BJ-TERT-LT-ST fibroblasts, dose response, cell-based, RAS-independent, luminescence (AID 1935); type: functional; conditions: Homo sapiens;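 further: BJ fibroblasts immortalized with TERT plus LT and ST oncogenes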
# Cannabinoid receptor 1 [14] = target: T1, Cannabinoid receptor 1 (Homo sapiens, UniProt P21554); test: SAR analysis of agonists of the Cannabinoid Receptor 1 using an Image-Based Assay - Set 3. [Related pubchem assays (depositor defined):AID1961, AID1965]; type: functional
# Cannabinoid receptor 1 [15] = target: T1, Cannabinoid receptor 1; test: SAR analysis of antagonists of the Cannabinoid Receptor 1 using an Image-Based Assay - Set 3. [Related pubchem assays (depositor defined):AID1961, AID1965]; type: functional
# [16] = target: T2, G-protein coupled receptor 35 (Homo sapiens, UniProt Q9HC97); test: SAR analysis of Antagonists of the GPR35 Receptor using an Image-Based Assay - Set 4. [Related pubchem assays (depositor defined):[…]]; type: functional
# Cannabinoid receptor 2 [17] = target: T3, Cannabinoid receptor 2 (Homo sapiens, UniProt P34972); test: SAR analysis of antagonists of the Cannabinoid Receptor 2 using an Image-Based Assay - Set 2. [Related pubchem assays (depositor defined):AID1961, AID1965]; type: functional
# Cannabinoid receptor 2 [18] = target: T3, Cannabinoid receptor 2; test: SAR analysis of agonists of the Cannabinoid Receptor 2 using an Image-Based Assay - Set 2. [Related pubchem assays (depositor defined):AID1961, AID1965]; type: functional
# [19] = target: G-protein coupled receptor 55 (Homo sapiens, UniProt Q9Y2T6); test: SAR analysis of selective Agonists of GPR55 using an Image-Based Assay - Set 2. [Related pubchem assays (depositor defined):AID1961, AID1965]; type: functional
# [20] = target: T2, G-protein coupled receptor 35; test: SAR analysis of Agonists of the GPR35 Receptor using an Image-Based Assay - Set 3. [Related pubchem assays (depositor defined):AID1961, AID1965]; type: functional
# [21] = target: T4, Sphingosine 1-phosphate receptor 4 (Homo sapiens, UniProt O95977); test: Late-stage fluorescence dose response cell-based assay to identify agonists of the Sphingosine 1-Phosphate Receptor 4 (S1P4): purchased compounds EC50. [Related pubchem assays (depositor defined):AID1509, AID1523, AID1563, AID1686, AID1701, AID1801]; type: functional
# T4 sequence (O95977 whole entry): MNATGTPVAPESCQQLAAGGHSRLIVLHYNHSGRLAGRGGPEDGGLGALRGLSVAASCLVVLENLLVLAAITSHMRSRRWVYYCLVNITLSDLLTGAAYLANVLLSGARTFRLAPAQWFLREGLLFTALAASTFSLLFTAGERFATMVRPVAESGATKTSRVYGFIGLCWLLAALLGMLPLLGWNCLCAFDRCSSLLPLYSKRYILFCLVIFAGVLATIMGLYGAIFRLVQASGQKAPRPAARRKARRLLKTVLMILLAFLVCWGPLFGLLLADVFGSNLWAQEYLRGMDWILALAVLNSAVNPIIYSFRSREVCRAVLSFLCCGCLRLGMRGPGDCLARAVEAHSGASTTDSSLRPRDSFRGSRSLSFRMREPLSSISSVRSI
# [22] = target: DNA dC->dU-editing enzyme APOBEC-3G (Homo sapiens, UniProt Q9HC16); test: Dose Response confirmation of small molecule APOBEC3G DNA Deaminase Inhibitors via a fluorescence-based single-stranded DNA deaminase assay. [Related pubchem assays (depositor defined):AID493012, AID493028]; type: functional
# [23] = target: DNA dC->dU-editing enzyme APOBEC-3A (Homo sapiens, UniProt P31941); test: APOBEC3A DNA deaminase inhibitors, dose response, biochemical (AID 504722); type: functional
# Chain of DNA dC->dU-editing enzyme APOBEC-3A (P31941 whole entry): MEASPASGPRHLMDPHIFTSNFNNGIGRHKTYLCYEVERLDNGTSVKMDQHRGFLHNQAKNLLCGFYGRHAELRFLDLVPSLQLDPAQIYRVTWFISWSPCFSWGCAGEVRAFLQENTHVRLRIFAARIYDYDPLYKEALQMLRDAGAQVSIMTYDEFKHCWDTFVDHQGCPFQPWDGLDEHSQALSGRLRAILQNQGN
# T3 sequence (P34972 whole entry): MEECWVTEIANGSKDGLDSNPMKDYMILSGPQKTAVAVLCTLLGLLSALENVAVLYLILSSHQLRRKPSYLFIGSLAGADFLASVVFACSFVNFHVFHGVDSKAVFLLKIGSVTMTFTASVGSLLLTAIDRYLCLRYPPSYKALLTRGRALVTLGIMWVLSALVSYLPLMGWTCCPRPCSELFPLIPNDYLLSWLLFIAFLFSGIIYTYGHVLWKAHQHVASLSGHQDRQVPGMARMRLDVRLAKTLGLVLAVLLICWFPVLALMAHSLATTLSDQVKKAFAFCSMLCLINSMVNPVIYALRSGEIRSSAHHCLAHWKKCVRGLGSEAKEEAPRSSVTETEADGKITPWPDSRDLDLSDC
# T1 sequence (P21554 whole entry): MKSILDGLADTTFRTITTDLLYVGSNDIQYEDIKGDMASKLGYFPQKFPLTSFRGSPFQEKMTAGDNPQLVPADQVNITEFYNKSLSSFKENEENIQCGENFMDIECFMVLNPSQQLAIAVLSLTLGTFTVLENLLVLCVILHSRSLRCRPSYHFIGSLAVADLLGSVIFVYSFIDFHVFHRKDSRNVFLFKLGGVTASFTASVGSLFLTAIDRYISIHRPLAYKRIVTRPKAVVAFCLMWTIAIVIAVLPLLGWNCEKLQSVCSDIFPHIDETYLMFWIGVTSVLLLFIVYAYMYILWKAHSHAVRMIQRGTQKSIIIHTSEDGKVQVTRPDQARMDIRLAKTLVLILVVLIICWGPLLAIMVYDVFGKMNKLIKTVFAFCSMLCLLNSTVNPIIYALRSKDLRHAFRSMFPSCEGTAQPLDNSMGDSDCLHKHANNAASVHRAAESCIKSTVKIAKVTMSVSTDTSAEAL
# T2 sequence (Q9HC97 whole entry): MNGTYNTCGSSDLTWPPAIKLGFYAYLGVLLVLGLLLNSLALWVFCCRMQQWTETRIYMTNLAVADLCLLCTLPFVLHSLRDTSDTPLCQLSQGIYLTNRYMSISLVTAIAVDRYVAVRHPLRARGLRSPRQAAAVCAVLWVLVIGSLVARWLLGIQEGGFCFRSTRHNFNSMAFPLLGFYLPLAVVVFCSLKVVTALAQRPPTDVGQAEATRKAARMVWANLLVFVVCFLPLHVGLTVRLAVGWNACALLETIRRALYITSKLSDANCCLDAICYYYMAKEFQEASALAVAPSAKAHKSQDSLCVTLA
# Chain of Mitochondrial peptide methionine sulfoxide reductase (P54149 whole entry): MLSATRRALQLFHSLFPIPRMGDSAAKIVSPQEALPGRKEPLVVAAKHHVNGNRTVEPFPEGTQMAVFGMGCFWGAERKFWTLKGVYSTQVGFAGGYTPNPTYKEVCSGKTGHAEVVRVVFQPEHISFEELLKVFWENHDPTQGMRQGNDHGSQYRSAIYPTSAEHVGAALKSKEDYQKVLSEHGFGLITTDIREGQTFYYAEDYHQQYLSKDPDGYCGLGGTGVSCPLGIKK
# Chain of G-protein coupled receptor 55 (Q9Y2T6 whole entry): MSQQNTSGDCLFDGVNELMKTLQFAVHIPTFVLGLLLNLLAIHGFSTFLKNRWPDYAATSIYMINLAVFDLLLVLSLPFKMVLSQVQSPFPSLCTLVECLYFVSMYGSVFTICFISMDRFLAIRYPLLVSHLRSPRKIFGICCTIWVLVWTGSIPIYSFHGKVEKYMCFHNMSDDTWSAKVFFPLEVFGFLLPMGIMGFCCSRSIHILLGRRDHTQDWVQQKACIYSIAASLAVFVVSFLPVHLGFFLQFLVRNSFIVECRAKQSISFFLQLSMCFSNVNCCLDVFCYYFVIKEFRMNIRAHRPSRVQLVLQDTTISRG
# Chain of NACHT, LRR and PYD domains-containing protein 3 (Q96P20 whole entry, the tested form may be a part): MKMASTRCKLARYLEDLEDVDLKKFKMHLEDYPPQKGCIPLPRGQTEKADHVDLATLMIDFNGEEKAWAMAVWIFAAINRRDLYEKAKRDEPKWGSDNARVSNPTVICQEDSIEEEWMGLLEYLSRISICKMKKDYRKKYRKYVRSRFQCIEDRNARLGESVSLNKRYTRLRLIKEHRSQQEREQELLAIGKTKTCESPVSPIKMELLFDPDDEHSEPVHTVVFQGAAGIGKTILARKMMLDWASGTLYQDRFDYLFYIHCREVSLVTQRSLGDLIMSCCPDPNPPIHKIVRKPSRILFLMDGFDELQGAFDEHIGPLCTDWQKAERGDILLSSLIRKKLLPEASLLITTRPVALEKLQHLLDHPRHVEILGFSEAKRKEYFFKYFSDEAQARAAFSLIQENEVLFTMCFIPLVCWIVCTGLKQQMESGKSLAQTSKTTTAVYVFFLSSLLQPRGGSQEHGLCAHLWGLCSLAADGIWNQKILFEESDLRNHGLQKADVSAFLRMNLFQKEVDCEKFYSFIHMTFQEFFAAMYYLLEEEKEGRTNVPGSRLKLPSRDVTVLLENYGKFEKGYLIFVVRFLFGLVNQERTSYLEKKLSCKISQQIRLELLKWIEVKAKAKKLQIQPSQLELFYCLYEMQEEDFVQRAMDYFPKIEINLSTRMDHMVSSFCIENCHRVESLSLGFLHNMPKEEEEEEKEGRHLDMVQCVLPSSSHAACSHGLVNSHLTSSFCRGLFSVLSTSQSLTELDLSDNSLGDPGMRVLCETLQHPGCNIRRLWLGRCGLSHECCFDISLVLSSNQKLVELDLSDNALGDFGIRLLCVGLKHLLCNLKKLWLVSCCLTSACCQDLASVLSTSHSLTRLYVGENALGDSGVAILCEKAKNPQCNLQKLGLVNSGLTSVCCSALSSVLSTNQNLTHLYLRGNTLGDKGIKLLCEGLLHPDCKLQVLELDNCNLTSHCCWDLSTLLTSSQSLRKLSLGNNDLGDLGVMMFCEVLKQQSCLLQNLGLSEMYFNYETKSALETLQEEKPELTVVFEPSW
# Chain of DNA dC->dU-editing enzyme APOBEC-3G (Q9HC16 whole entry): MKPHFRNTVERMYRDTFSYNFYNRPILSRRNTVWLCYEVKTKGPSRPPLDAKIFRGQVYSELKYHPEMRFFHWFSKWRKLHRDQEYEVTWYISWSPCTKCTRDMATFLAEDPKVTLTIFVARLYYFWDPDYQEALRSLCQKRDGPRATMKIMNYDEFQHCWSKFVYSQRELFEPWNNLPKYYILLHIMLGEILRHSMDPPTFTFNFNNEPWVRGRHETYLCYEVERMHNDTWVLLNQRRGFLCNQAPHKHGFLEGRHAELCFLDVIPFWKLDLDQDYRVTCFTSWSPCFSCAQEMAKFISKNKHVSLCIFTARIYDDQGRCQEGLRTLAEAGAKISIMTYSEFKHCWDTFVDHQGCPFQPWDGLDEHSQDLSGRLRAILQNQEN
structure (smiles),measurement,setting,value
CCN(CC)c1ccc(NC(=O)c2cc(OC)cc(OC)c2)c(C)c1,IC50,J774.A1,0.13 µM (active)
same,IC50,[1],> 80 µM (inactive)
CCN(CC)c1ccc2nc3ccccc3[n+](CC)c2c1,CC50,[2],> 40 µM (active)
same,AC50,INS1,0.602 µM (active)
same,EC50,BJ [3],23.6 µM (active)
same,EC50,[4],11.2 µM (active)
same,EC50,BJ [5],16.9 µM (active)
same,EC50,[6],15.2 µM (active)
same,IC50,[7],14.3 µM (active)
same,EC50,[8],25.9 µM (active)
same,EC50,[9],0.686 µM (active)
same,EC50,[10],96.1 µM (active)
same,EC50,[11],9.49 µM (active)
same,EC50,[12],19.2 µM (inactive)
same,IC50,[1],48.8 µM (inactive)
same,EC50,BJ [13],> 150 µM (inconclusive)
O=C(Nc1cc(S(=O)(=O)N2CCOCC2)ccc1Cl)c1cc2c(s1)CCCC2,EC50,Cannabinoid receptor 1 [14],7.87 µM (active)
same,IC50,Cannabinoid receptor 1 [15],> 32 µM (inactive)
same,IC50,[16],> 32 µM (inactive)
same,IC50,Cannabinoid receptor 2 [17],> 32 µM (inactive)
same,EC50,Cannabinoid receptor 2 [18],> 32 µM (inactive)
same,EC50,[19],0.779 µM (active)
same,EC50,[20],> 32 µM (inactive)
CCCc1ccc(C(=O)C(C)OC(=O)c2c(C)nn(Cc3ccccc3)c2Cl)cc1 (stereo unspecified),EC50,[21],> 50 µM (inactive)
FC(F)Oc1ccc(/C=N/n2c(S)nnc2Cc2ccc(Br)cc2)cc1,IC50,[22],6.93 µM (active)
same,IC50,[23],> 100 µM (inactive)
